Measurements taken from patent US12109305B2, “Materials architecture for gastric residence systems” (Lyndra Therapeutics, Inc., priority 2016, dated 2024).

Assay: Degradation of time-dependent coupling polymer components in simulated gastric fluid
Format: physicochemical
Details: seven days
Excerpt: Additional preferred polymers for use as coupling polymers are time-dependent polymers, that is, polymers that degrade in a time-dependent manner in the gastric environment.

## CC(=O)OCC(COC(C)=O)OC(C)=O [triacetin]
  degradation / retention of strength in simulated gastric fluid: degrades in a time-dependent manner
